Experimental data reported in ChEMBL document CHEMBL1153218, “Non-peptide entry inhibitors of HIV-1 that target the gp41 coiled coil pocket” (Bioorg Med Chem Lett, 2010).

Test: Inhibition of HIV1 envelope gp41-mediated fusion of CHO cells expressing HIV1 envelope with calcein-AM labeled SupT1 cells by fluorescence assay
Assay type: cell-based, Human immunodeficiency virus 1

Point of comparison: O=C(O)c1cc(C(=O)O)c(C(=O)N(Cc2ccc(-c3cc(Cl)cc(Cl)c3)cc2)[C@H]2CCCc3ccccc32)cc1C(=O)O, EC50 4 µM. Against it:
- O=C(O)c1cc(C(=O)O)cc(C(=O)N(Cc2cccc(Oc3ccccc3)c2)[C@H]2CCCc3ccccc32)c1 — 10-fold higher, 41 µM
- O=C(O)c1ccccc1C(=O)N(Cc1cccc(Oc2ccc(Cl)cc2)c1)[C@H]1CCCc2ccccc21 — within 1.5-fold, 3 µM
- O=C(O)c1ccccc1C(=O)N(Cc1cccc(Oc2ccccc2)c1)CC12CC3CC(CC(C3)C1)C2 — 1.8-fold higher, 7 µM
- O=C(O)c1cc(C(=O)O)c(C(=O)N(Cc2cccc(OC3CCOCC3)c2)[C@H]2CCCc3ccccc32)cc1C(=O)O — higher, > 250 µM
- O=C(O)c1cc(C(=O)O)c(C(=O)N(Cc2ccc(-c3ccccc3Cl)cc2)[C@H]2CCCc3ccccc32)cc1C(=O)O — 2.2-fold higher, 9 µM
- COc1ccc(-c2ccc(CN(C(=O)c3cc(C(=O)O)c(C(=O)O)cc3C(=O)O)[C@H]3CCCc4ccccc43)cc2)cc1 — 3.5-fold higher, 14 µM
- O=C(O)c1cc(C(=O)O)c(C(=O)N(Cc2ccc3c(c2)Cc2ccccc2-3)[C@H]2CCCc3ccccc32)cc1C(=O)O — 6.5-fold higher, 26 µM
- O=C(O)c1ccc(C(=O)N(Cc2cccc(Oc3ccccc3)c2)[C@H]2CCCc3ccccc32)cc1C(=O)O — 8.5-fold higher, 34 µM
- O=C(O)c1ccccc1C(=O)N(Cc1ccc(-c2ccccc2)cc1)[C@H]1CCCc2ccccc21 — 4-fold higher, 16 µM
- CC(=O)N[C@H](CCCCN)C(=O)N[C@H](CCCCN)C(=O)NCC(=O)N[C@H](C)C(=O)N[C@@H]1CSSC[C@H](C(=O)N[C@H](C)C(=O)N[C@H](C)C(N)=O)NC(=O)[C@@H](CC(C)C)NC(=O)[C@@H](Cc2c[nH]c3ccccc23)NC(=O)[C@@H](C)NC(=O)[C@@H](Cc2c[nH]c3ccccc23)NC(=O)[C@@H](CCC(=O)O)NC(=O)[C@@H](Cc2c[nH]c3ccccc23)NC(=O)CNC(=O)[C@@H](CC(C)C)NC(=O)[C@@H](CC(C)C)NC(=O)[C@@H](CCC(=O)O)NC1=O — 4.8-fold higher, 19 µM
- O=C(O)c1cc(C(=O)O)c(C(=O)N(Cc2cccc(Oc3ccccc3)c2)[C@H]2CCCc3ccccc32)cc1C(=O)O [A-317491] — 3.2-fold higher, 13 µM

Test: Binding affinity to HIV1 envelope gp41 by NMR study
Set-up: species or system Human immunodeficiency virus 1

Point of comparison: COc1ccc(-c2ccc(CN(C(=O)c3cc(C(=O)O)c(C(=O)O)cc3C(=O)O)[C@H]3CCCc4ccccc43)cc2)cc1, Kd 789 µM. Against it:
- O=C(O)c1ccccc1C(=O)N(Cc1cccc(Oc2ccccc2)c1)Cc1ccccn1 — higher, > 5000 µM
